Measurements published in US9233920B2, “Process for the preparation of dihydropyrrole derivatives” (Syngenta Participations AG, priority 2010, dated 2016).

Experiments:
Type in all cases: in vivo
[1] = tested on: Thrips tabaci; assay: Thrips tabaci (onion thrips) sunflower leaf disc spray test; details: Thrips tabaci mixed ages on sunflower leaf discs, 7 days incubation, mortality
Procedure: (§1) These examples illustrate the comparative insecticidal and acaricidal properties of compounds A23 and A24. The tests were performed as follows:
Thrips tabaci (Onion Thrips):
[…] After drying, the leaf discs were infested with an […] population of mixed ages. After an incubation period of 7 days, samples were checked for mortality.

[2] = tested on: Heliothis virescens; assay: Heliothis virescens (tobacco budworm) egg/larval test on artificial diet in 24-well microtiter plate; details: Heliothis virescens eggs 0-24 h old, 4 days incubation, egg mortality, larval mortality, growth regulation
Procedure: as §1
Heliothis virescens (Tobacco Budworm):
Eggs (0-24 h old) were placed in 24-well microtiter plate on artificial diet and treated with test solutions at an application rate of 12.5 ppm (concentration in well 18 ppm) by pipetting. After an incubation period of 4 days, samples were checked for egg mortality, larval mortality, and growth regulation.

[3] = tested on: Diabrotica balteata; assay: Diabrotica balteata (corn root worm) L2 larvae test on artificial diet in 24-well microtiter plate; details: 5 days incubation, larval mortality and growth regulation
Procedure: as §1
Diabrotica balteata (Corn Root Worm):
A 24-well microtiter plate (MTP) with artificial diet was treated with test solutions at an application rate of 12.5 ppm (concentration in well 18 ppm) by pipetting. After drying, the MTP's were infested with L2 larvae (6-10 per well). After an incubation period of 5 days, samples were checked for larval mortality and growth regulation.

Structure (SMILES) | % Control at 12.5 ppm [1] [%] | % Control at 200 ppm [1] [%] | % Control at 12.5 ppm [2] [%] | % Control at 200 ppm [2] [%] | % Control at 12.5 ppm [3] [%] | % Control at 200 ppm [3] [%]
Cc1cc(C2=NC[C@@](c3cc(Cl)cc(Cl)c3)(C(F)(F)F)C2)ccc1C(=O)NC1CS(=O)(=O)C1 [Compound A23, 4-[(3R)-3-(3,5-dichlorophenyl)-3-(trifluoromethyl)-2,4-dihydropyrrol-5-yl]-N-(1,1-dioxothietan-3-yl)-2-methyl-benzamide] | 100 | 100 | 100 | 100 | 100 | 100
Cc1cc(C2=NC[C@](c3cc(Cl)cc(Cl)c3)(C(F)(F)F)C2)ccc1C(=O)NC1CS(=O)(=O)C1 [Compound A24, 4-[(3S)-3-(3,5-dichlorophenyl)-3-(trifluoromethyl)-2,4-dihydropyrrol-5-yl]-N-(1,1-dioxothietan-3-yl)-2-methyl-benzamide] | 40 | 100 | 50 | 100 | 0 | 100
